# Data: the supplement of paper PMC7661543
# ± gives the standard deviation of the averaged measurements.
# Legend:
# Test in all cases: relative cell number vs DMSO control (72 h) (% of DMSO); higher = less growth inhibition (more cells)
# Settings in all cases: sgRNA knockout: sgNT
# ZR-75-1 = test system: ZR-75-1
# Description: (§1)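 QMAP-Seq: a pool of 5 breast cancer cell lines (ZR-75-1, SKBR3, HCC-38, MDA-MB-231, BT-20), each carrying 12 doxycycline-inducible Cas9 sgRNA perturbations (11 knockouts plus non-targeting sgNT), was treated with compounds for 72 h at four 10-fold doses (10 nM-10 uM or 1 nM-1 uM range). Barcodes were amplified and sequenced, and cell number was interpolated from 293T spike-in standard curves. The result is expressed as % of the median of DMSO wells. Two biological replicates.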
# BT-20 = test system: BT-20
# Description: as §1
# MDA-MB-231 = test system: MDA-MB-231
# Description: as §1
# SKBR3 = test system: SKBR3
# Description: as §1
# HCC-38 = test system: HCC-38
# Description: as §1
SMILES,relative cell number (ZR-75-1; 10 nM),relative cell number (ZR-75-1; 100 nM),relative cell number (ZR-75-1; 1000 nM),relative cell number (ZR-75-1; 10000 nM),relative cell number (BT-20; 10 nM),relative cell number (BT-20; 100 nM),relative cell number (BT-20; 1000 nM),relative cell number (BT-20; 10000 nM),relative cell number (MDA-MB-231; 10 nM),relative cell number (MDA-MB-231; 100 nM),relative cell number (MDA-MB-231; 1000 nM),relative cell number (MDA-MB-231; 10000 nM),relative cell number (SKBR3; 10 nM),relative cell number (SKBR3; 100 nM),relative cell number (SKBR3; 1000 nM),relative cell number (SKBR3; 10000 nM),relative cell number (HCC-38; 10 nM),relative cell number (HCC-38; 100 nM),relative cell number (HCC-38; 1000 nM),relative cell number (HCC-38; 10000 nM)
CC1(C)CCC(c2ccc(Cl)cc2)=C(CN2CCN(c3ccc(C(=O)NS(=O)(=O)c4ccc(N[C@H](CCN5CCOCC5)CSc5ccccc5)c(S(=O)(=O)C(F)(F)F)c4)cc3)CC2)C1 [Navitoclax],86.5 ± 10,95.5 ± 39,105 ± 11,81.5 ± 24,85.4 ± 11,90.6 ± 3.6,94.8 ± 3.5,78 ± 12,93.9 ± 27,108 ± 6.7,93.9 ± 13,52.5 ± 7.4,74.6 ± 24,117 ± 33,50 ± 18,75.1 ± 14,96.9 ± 14,102 ± 12,76.6 ± 12,47.9 ± 1.3
CN1C(=O)C(Cc2c[nH]c3ccccc23)NC1=S (stereo not given) [Necrostatin1],76.9 ± 14,71.3 ± 29,78.3 ± 31,84.6 ± 35,110 ± 16,63.8 ± 8.2,82.9 ± 0.53,114 ± 14,97.3 ± 20,79.2 ± 7.1,97.7 ± 25,64.1 ± 3,89.8 ± 11,92.2 ± 8.2,60.4 ± 1.4,68.6 ± 3.7,110 ± 12,92.5 ± 3.2,105 ± 2.8,91.2 ± 2.3
COc1nc(N)nc2c1ncn2[C@@H]1O[C@H](CO)[C@@H](O)[C@@H]1O [Nelarabine],85.5 ± 33,74.6 ± 23,81.7 ± 5.5,109 ± 7.7,90.5 ± 4.3,85.5 ± 1.7,94.9 ± 26,98 ± 15,82 ± 19,95.5 ± 4.6,104 ± 23,72 ± 26,100 ± 31,85.8 ± 2.9,101 ± 6.9,91.7 ± 4.2,113 ± 3.4,96.7 ± 16,99 ± 21,109 ± 4.1
CCOc1cc2ncc(C#N)c(Nc3ccc(OCc4ccccn4)c(Cl)c3)c2cc1NC(=O)/C=C/CN(C)C [Neratinib],100 ± 32,73.9 ± 1.6,70.7 ± 6,47.4 ± 0.48,86.8 ± 7.5,99.2 ± 16,79.7 ± 16,51.4 ± 2.7,98.3 ± 10,74.1 ± 4,91.24 ± 0.32,46.6 ± 1.1,92.7 ± 6.7,70.3 ± 1.5,27.1 ± 5.3,17.2 ± 0.58,85 ± 2.7,101 ± 7,95.9 ± 12,50 ± 3.4
O=C(Nc1ccc([N+](=O)[O-])cc1Cl)c1cc(Cl)ccc1O [Niclosamide],88.4 ± 14,104 ± 61,102 ± 80,50.2 ± 10,91.7 ± 20,109 ± 7,98.5 ± 3.8,55 ± 12,115 ± 21,119 ± 34,97.4 ± 20,37.7 ± 14,108 ± 7.6,83.6 ± 3.2,82.1 ± 19,59.8 ± 2.1,92.2 ± 13,92.62 ± 0.79,113 ± 7.2,46.5 ± 11
